This note sets out measurements from US9650399B2, “Salicylic acid derivatives, pharmaceutically acceptable salt thereof, composition thereof and method of use thereof” (The Governing Council of the University of Toronto, priority 2012, dated 2017).

In data set [1] the test system is 101 diverse kinases. As to the kind of experiment: KINOMEscan kinome screen. Format: binding. To be noted: 500 nM; hit defined as >35% inhibition. As to the method:
[…] The test compound was evaluated at a single dose of 500 nM. Kinase-tagged T7 phage strains were grown in parallel in 24-well blocks in an E. coli host derived from the BL21 strain. E. coli were grown to the log-phase and were then infected with T7 phage from a frozen stock (multiplicity of infection=0.4) and incubated at 32° C. with shaking until lysis (90-150 minutes). Lysates were centrifuged (6,000×g) and filtered (0.2 μm) to remove any cell debris. The remaining kinases were produced in HEK-293 cells and were then tagged with DNA for easy quantitative PCR (qPCR) detection. […] The liganded beads were blocked with excess biotin and washed with blocking buffer (SeaBlock (Pierce), 1% BSA, 0.05 Tween 20, 1 mM DTT) in order to remove unbound ligand and to also reduce non-specific phage binding. […] All reactions were performed in polypropylene 384-well plates in a final volume of 40 μL. […] Kinase concentration in eluates was measured by qPCR (FIG. 6).

Data set [2] has as its system STAT3 phosphorylation (Y705). As to the kind of experiment: Western blot of IL-6 stimulated pSTAT3 in pancreatic cancer cells. Format: cell-based. To be noted: 1 hr pretreatment, IL-6 50 ng/mL 15 min, Pa03C. As to the method:
Low passage patient-derived pancreatic cancer lines (Pa03C and Panc10.05) were plated in 6-well plates (2×10^5 and 8×10^4, respectively) and allowed to attach overnight. STAT3 inhibitors were added for 1 hr prior to IL-6 stimulation (50 ng/mL, 15 min). STAT3 inhibitors were present during IL-6 stimulation. Cells were harvested and lysed for Western blotting. phospho-Specific STAT3 antibody (Y705) was used to look at STAT3 phosphorylation and total STAT3 antibody was used to normalize activation of STAT3. Antibodies were from Cell Signaling and used at a 1:1000 dilution.
A general note: A western blot detects proteins with antibodies after separation by electrophoresis.

Data set [3] in a line: blood brain barrier permeability: plasma and brain concentrations by LC-MS. To be noted: for concentration at 30 min: mouse, plasma, intraperitoneal. Format: in vivo, mice. Here is the method:
Compounds 31 and 32 were given to three mice at 10 mg/kg BID via IP for five days and blood was collected at two time points (30 min. and 300 min.) for all mice. Plasma was separated from blood by centrifugation and stored at −20° C. until analysis. Brain was also collected from one mouse at each dose. Concentrations of compounds were determined using LC-MS.

Data set [4] concerns ErbB2 mammary breast tumour cell lines (NIC). As to the kind of experiment: CyQuant proliferation assay in ErbB2 mammary tumour cell lines. Type of data set: cell-based. As to the method: Compounds were assessed for inhibition of cell proliferation in ErbB2 mammary breast tumour cell lines (NIC) containing the activated form of ErbB2 using a CyQuant Assay. […] Three individual Mouse Mammary Tumour Virus ErbB2 mammary tumour cell lines (NIC) were resuspended in 10% FBS plus single quots DMEM media to a final concentration of 40,000 cells per 1 mL. Cells were plated at a concentration of 4,000 cells in 100 μL of media per well on 96 well NUNC plates and incubated for 24 h hours at 37° C. plus 5% CO2. […] Each condition was repeated in quadruplicate. At predetermined time points; at treatment, 24 h, 48 h and 72 h post treatment, the media was removed from the cells and the plates were stored at −80° C. wrapped in tin foil. When needed, all the plates were thawed to room temperature. Invitrogen's CyQuant Cell Proliferation Assay kit was used to measure DNA content. Following their directions, the cell lysis buffer was diluted 1:20 with water and then the CyQuant GR solution 1:400 in the lysis buffer. […] The plates were then incubated for 2-5 minutes protected from light, then read on a fluorescence microplate reader with filters for 480 nm excitation and 520 nm emission maxima. Quadruplicates were averaged and the error bars represent the S.E.M. In some cases the absorbance was normalized to the DMSO control.

Data set [5] relates to multiple myeloma tumor cell lines. As to the kind of experiment: MTT cytotoxicity in multiple myeloma cell lines. To be noted: 12 of 15 multiple myeloma cell lines, read-out: ED50 (the source's name). Type of data set: cell-based. As to the method:
For assessing MM cell viability, HMCL cells were seeded in 96-well plates in triplicate at a density of 20,000 cells/well and incubated with increasing concentrations of 16i and 21h or DMSO control and cell viability assessed by MTT (3-(4,5-dimethylthiazol)-2,5-diphenyl tetrazolium) colorimetric analysis. Results are reported at FIG. 12.

Each structure is given as a SMILES string. “Also recorded” adds a separate entry of the source.

On to `CN(CC(=O)N(Cc1ccc(C2CCCCC2)cc1)c1ccc(C(=O)O)cc1)S(=O)(=O)c1c(F)c(F)c(F)c(F)c1F` [Compound 31, 4-(N-(4-cyclohexylbenzyl)-2-(2,3,4,5,6-pentafluoro-N-methylphenylsulfonamido)acetamido)benzoic acid], for which the “off-target kinase activity, kinome screen” value in data set [1] was “negligible effects; also recorded: does not inhibit any of the 101 kinases”. In addition, the “de novo phosphorylation of STAT3” value in data set [2] is given as “potently inhibits de novo phosphorylation of STAT3 protein”. In data set [3] (10 mg/kg BID IP), the “change of plasma concentration between 30 min. and 300 min” value is “did not change significantly”. The “concentration in the brain” value was “up to 300 nM” in data set [3] (10 mg/kg dosing (FIG. 18)); “about 0.3 μM” in data set [3] (10 mg/kg dosing, IP BID); “up to 0.7 μM” in data set [3] (dosing 10 mg/kg and 25 mg/kg, LCMS (FIG. 17)). Besides, the “compound in plasma after 5 hr” value in data set [3] (both doses (10 and 25 mg/kg)) was “no compound was detected”. The results for the concentration at 30 min in data set [3] (10 mg/kg) and in data set [3] (25 mg/kg) were 240 nM and 580 nM, respectively. Moreover, the “cell proliferation in 2071 NIC cells” value in data set [4] (5 μM, CyQuant) is on record as “completely inhibiting cell proliferation”. Further, the “potency in comparison with BP1-102” value in data set [4] (NIC cell lines 2071, 8518 and 9822) is “more potent”. In data set [5], the EC50 fell in the range of 2 to 6 µM.
